{
  "source": "paper PMC4386669",
  "about": "(Cell reports, 2014)",
  "key": {"Ewing sarcoma cell lines [1]": {"tested_on": "Ewing sarcoma cell lines", "test": "Dose-response cytotoxicity in Ewing sarcoma cell lines", "type": "cell-based"}, "ES-6 cells [2]": {"tested_on": "ES-6 cells", "test": "Dose-response cytotoxicity in ES-6 cells", "type": "cell-based", "settings": "for Sensitivity (cytotoxicity): 144 hours"}, "[3]": {"test": "Plasma and tumor pharmacokinetics in mice with orthotopic xenografts", "type": "in vivo, CD1-nude mice", "settings": "for concentration at 12 h: CD1-nude, mouse, orthotopic xenograft tumor, po; for Murine equivalent dose (most appropriate dose for twice-daily oral administration in mice): from plasma AUC in mice compared with plasma PK data in patients"}, "PARP1": {"target": "PARP1 (Homo sapiens, UniProt P09874)", "sequence (P09874 whole entry)": "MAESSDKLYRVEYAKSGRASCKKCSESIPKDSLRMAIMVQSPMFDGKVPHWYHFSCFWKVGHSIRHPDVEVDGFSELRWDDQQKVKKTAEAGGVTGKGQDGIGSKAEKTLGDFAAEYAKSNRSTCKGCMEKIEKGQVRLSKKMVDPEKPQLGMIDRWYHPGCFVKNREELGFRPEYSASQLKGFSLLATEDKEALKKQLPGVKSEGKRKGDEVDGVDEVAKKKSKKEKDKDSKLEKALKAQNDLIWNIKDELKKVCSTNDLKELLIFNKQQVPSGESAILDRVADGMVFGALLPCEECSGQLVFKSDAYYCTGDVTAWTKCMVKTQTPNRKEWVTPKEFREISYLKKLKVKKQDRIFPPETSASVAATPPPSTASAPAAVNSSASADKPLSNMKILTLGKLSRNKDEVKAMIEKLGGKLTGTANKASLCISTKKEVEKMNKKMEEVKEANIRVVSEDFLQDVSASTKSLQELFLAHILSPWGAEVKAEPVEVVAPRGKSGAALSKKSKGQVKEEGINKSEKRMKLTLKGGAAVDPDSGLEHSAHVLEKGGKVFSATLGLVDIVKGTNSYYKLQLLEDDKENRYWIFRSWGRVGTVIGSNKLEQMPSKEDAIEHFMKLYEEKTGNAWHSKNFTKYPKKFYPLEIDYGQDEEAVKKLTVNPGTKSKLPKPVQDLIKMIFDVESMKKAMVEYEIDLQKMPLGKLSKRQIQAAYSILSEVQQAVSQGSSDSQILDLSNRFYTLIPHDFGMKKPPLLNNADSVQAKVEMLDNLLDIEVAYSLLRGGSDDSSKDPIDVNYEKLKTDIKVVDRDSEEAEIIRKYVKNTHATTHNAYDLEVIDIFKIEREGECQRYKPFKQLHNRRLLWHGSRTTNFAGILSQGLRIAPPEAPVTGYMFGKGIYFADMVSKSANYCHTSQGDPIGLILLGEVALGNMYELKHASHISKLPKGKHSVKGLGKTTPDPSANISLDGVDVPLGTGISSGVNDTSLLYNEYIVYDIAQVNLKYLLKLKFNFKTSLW", "settings": "10 micromolar PARPi + 0.01% MMS"}, "[4]": {"settings": "TMZ to 10 mg/kg in mice; BMN-673 to 0.1 mg/kg (of the MED)"}, "EWS cell lines": {"tested_on": "EWS cell lines", "test": "Drug-pair cytotoxicity with response surface model"}, "ES-8 EWS cells": {"tested_on": "ES-8 EWS cells", "test": "Single-cell alkali gel electrophoresis", "type": "cell-based", "settings": "after 12 hours of exposure to the PARPi"}, "Ewing sarcoma cell lines [5]": {"tested_on": "Ewing sarcoma cell lines", "settings": "ref Brenner et al., 2012, Garnett et al.; cited from earlier work"}, "ES-6 cells [6]": {"tested_on": "ES-6 cells", "settings": "72 hours, ref Garnett et al., 2012; cited from earlier work"}, "ES-6 cells [7]": {"tested_on": "ES-6 cells", "settings": "later timepoints, ref Garnett et al., 2012; cited from earlier work"}, "SAOS2": {"tested_on": "SAOS2", "test": "Dose-response cytotoxicity in SAOS2", "type": "cell-based"}, "[8]": {"settings": "ref Morton et al., 2005, 2000; cited from earlier work"}, "[9]": {"settings": "translocation-positive EWS cell lines, RSM"}, "[10]": {"settings": "EW-8, ES-8, and ES-1 cells, 72 hours of exposure"}},
  "note": "Where two headings read alike, the source gives them in different places.",
  "data": [
    {"smiles": "C[C@]1(c2nc3c(C(N)=O)cccc3[nH]2)CCCN1", "note": "[veliparib]", "values": [
      {"measurement": "Sensitivity (cytotoxicity)", "setting": "Ewing sarcoma cell lines [1]; all EWS cell lines except ES-6, 144 hours", "value": "marginal"},
      {"measurement": "Sensitivity (cytotoxicity)", "setting": "ES-6 cells [2]", "value": "resistant"},
      {"measurement": "concentration at 12 h", "setting": "[3]", "value": "≥ 50", "unit": "nM"},
      {"measurement": "Murine equivalent dose (most appropriate dose for twice-daily oral administration in mice)", "setting": "[3]", "value": 12.5, "unit": "mg/kg"},
      {"measurement": "PARP trapping potential (rank order)", "setting": "PARP1", "value": "BMN-673 > olaparib > veliparib"}
    ]},
    {"smiles": "Cn1nnc2c(C(N)=O)ncn2c1=O", "note": "[TMZ, temozolomide]", "values": [
      {"measurement": "EC50", "setting": "Ewing sarcoma cell lines [1]; 144 h", "value": "> 100000", "unit": "nM"},
      {"measurement": "Dose reduction needed to make the BMN-673 + TMZ combination tolerable", "setting": "[4]", "value": 70, "unit": "%"},
      {"measurement": "Fold higher concentration of TMZ required for the same level of potentiation as IRN", "setting": "EWS cell lines; potentiation of PARPi-mediated killing of EWS cells", "value": "≥ 1,000 fold"},
      {"measurement": "Concentration required for the same level of PARPi potentiation", "setting": "EWS cell lines; [9]", "value": "10 to 100", "unit": "µM"}
    ]},
    {"smiles": "Cn1ncnc1[C@H]1c2n[nH]c(=O)c3cc(F)cc(c23)N[C@@H]1c1ccc(F)cc1", "note": "[BMN-673]", "values": [
      {"measurement": "Sensitivity (cytotoxicity)", "setting": "Ewing sarcoma cell lines [1]; [10]", "value": "sensitive"},
      {"measurement": "Sensitivity (cytotoxicity)", "setting": "ES-6 cells [2]", "value": "resistant"},
      {"measurement": "Basal level of DNA damage (comet tail moment)", "setting": "ES-8 EWS cells; 1 or 10 μM", "value": "elevated"},
      {"measurement": "concentration at 12 h", "setting": "[3]", "value": "≥ 15", "unit": "nM"},
      {"measurement": "Murine equivalent dose (most appropriate dose for twice-daily oral administration in mice)", "setting": "[3]", "value": 0.125, "unit": "mg/kg"}
    ]},
    {"smiles": "O=C(c1cc(Cc2n[nH]c(=O)c3ccccc23)ccc1F)N1CCN(C(=O)C2CC2)CC1", "note": "[olaparib]", "values": [
      {"measurement": "Sensitivity (cytotoxicity)", "setting": "Ewing sarcoma cell lines [1]; [10]", "value": "sensitive"},
      {"measurement": "Potency compared to other EWS cell lines", "setting": "ES-6 cells [2]", "value": "significantly lower potency"},
      {"measurement": "Basal level of DNA damage (comet tail moment)", "setting": "ES-8 EWS cells; 10 μM", "value": "elevated"},
      {"measurement": "concentration at 12 h", "setting": "[3]", "value": "≥ 90", "unit": "nM"},
      {"measurement": "Murine equivalent dose (most appropriate dose for twice-daily oral administration in mice)", "setting": "[3]", "value": 50, "unit": "mg/kg"},
      {"measurement": "Sensitivity of EWS cell lines", "setting": "Ewing sarcoma cell lines [5]", "value": "sensitive"},
      {"measurement": "Sensitivity (cytotoxicity)", "setting": "ES-6 cells [6]", "value": "resistant"},
      {"measurement": "Sensitivity in colony assays", "setting": "ES-6 cells [7]", "value": "some sensitivity"}
    ]},
    {"smiles": "CCc1c2c(nc3ccc(O)cc13)-c1cc3c(c(=O)n1C2)COC(=O)[C@]3(O)CC", "note": "[SN-38]", "values": [
      {"measurement": "EC50", "setting": "Ewing sarcoma cell lines [1]; 144 hours, all EWS cell lines tested excluding ES-6", "value": "< 10", "unit": "nM"},
      {"measurement": "Potency compared to other EWS cell lines", "setting": "ES-6 cells [2]", "value": "significantly lower potency"},
      {"measurement": "EC50", "setting": "SAOS2", "value": "< 100", "unit": "nM"},
      {"measurement": "Cmax and AUC of SN-38 in mouse plasma versus human plasma", "setting": "[8]", "value": "slightly higher"},
      {"measurement": "Concentration at which PARPi is significantly potentiated", "setting": "EWS cell lines; [9]", "value": "1 to 10", "unit": "nM"}
    ]}
  ]
}
